Data on 31 compounds can be found in patent US9938292B2 (GUANGDONG ZHONGSHENG PHARMACEUTICAL CO., LTD, priority 2014, dated 2018).

A value given as a limit tells only on which side of the number the result lay.

One experiment deals with Hedgehog signaling pathway. Kind of experiment: Gli-Luc luciferase reporter gene assay in C3H10T1/2/Gli-Luc cells under Shh-N stimulation. The conditions noted are these: 24 h, luciferase RLU, read-out: biological activity: IC50 of the inhibitory activities of compounds on the hedgehog pathway. It counts as cell-based. The source says: The luciferase (Gli-Luc) reporter gene with Gli response element was transfected into C3H10T1/2 cells, under Shh-N stimulation conditions, determine the Hedgehog signaling pathway inhibitors through the detection of gene expression in cell activity report. In this study, we evaluated the inhibitory effects of compounds on Hedgehog signaling pathway in the IC50 value of the compound as an index.
Cell lines: C3H10T1/2/Gli-Luc stable cell line • C3H10T1/2/Gli-Luc Cell culture medium (DMEM/high glucose HyClone, #SH30022.01B; 10% serum Hyclone, #SV30087; 0.4% Hygromycin B Roche, #13398200) • 0.25% Trypsin-EDTA (Gibco, #25200)
Shh-N, HEK293/SHH-N stable cell culture supernatant
Inoculate the logarithmic growth phase of C3H10T1/2/Gli-Luc cells into a 96-well culture plate with 20000 cells per well, cells were cultured in a 37° C., 5% CO2 incubator overnight. The next day, the compounds were diluted in the following ways: the positive compound GDC0449 (1 mM) and the compounds (1 mM) to be measured were serially diluted to 7 concentrations by DMSO according to 1:3 and 1:10 respectively, the eighth is for DMSO control, and then diluted with fresh medium 100 times. The medium of the cells cultured overnight was removed, 80 μL fresh culture medium was added per well, then 20 μL gradiently diluted positive compound and compounds to be measured and 100 μL 30 nM Shh-N containing conditioned medium were added, each concentration repeated 2 wells, at the same time, positive and negative reference well were set (i.e. Shh Ctrl: 80 μL fresh medium+20 μL 1% DMSO containing medium+100 μL 30 nM Shh-N containing conditioned medium; Unstimulated Ctrl: 180 μL fresh medium+20 μL 1% DMSO containing medium), cells were cultured in the incubator for further 24 h.
Intracellular luciferase activity detection: take the cells out of 96-well plate, discard the culture medium, the cells were washed with PBS twice, then each well added with 20 μL lysate (Promega E1531), oscillate pyrolysis at room temperature for 30 min. 5 μL cell lysates were transferred to 384-well plate (Greiner 781074), then each well was added with 25 μL luciferase reaction liquid (Promega E1501), after rapid mixed, immediately placed into the VarioSkan Flash multi-function reading instrument to read the relative light units (RLU) value.
Data analysis: using Prism's GraphPad 5 for data analysis. RLU reading to the logarithmic mapping of compound concentration on behalf of luciferase activity, and then curve fitting using the following equation to give IC50 value, Y (RLU)=minimum+(maximum−minimum)/(1+10^(log of compound concentration−Log IC50)).
(Reporter assays use an easily measured gene product as a stand-in for the process of interest.)
A word on the IC50: it is the concentration that gives 50% inhibition. Consider `CCC(=O)N1[C@H](C)CN(c2ccc(NC(=O)c3cnc4c(-c5ccc(C#N)cc5)cccc4c3C3CC3)cn2)C[C@@H]1C` [Embodiment 246], for which the IC50 was at most 50 nM.

The same experiment, now with this note: Mus musculus, C3H 10T1/2, 24 h, luciferase RLU, read-out: biological activity: IC50 of the inhibitory activities of compounds on the hedgehog pathway.
Take `COc1c(N2CCC(O)(c3ccc(C(C)(C)O)cn3)CC2)cnc2c(-c3ccc(C#N)cc3)cccc12` [Embodiment 238, 4-(3-(4-hydroxy-4-(5-(2-hydroxypropan-2-yl)pyridin-2-yl)piperidin-1-yl)-4-methoxyquinolin-8-yl)benzonitrile]: the IC50 was at most 50 nM.

For the compound `Cc1cn(-c2ccc(N3CCN4C(=O)CC[C@H]4C3)cc2)c(=O)c2cccc(-c3ccc(C#N)cc3)c12` [Embodiment 40, (S)-4-(4-methyl-1-oxo-2-(4-(6-oxo-hexahydropyrrolo[1,2-a]pyrazin-2(1H)-yl)phenyl)-1,2-dihydroisoquinolin-5-yl)benzonitrile], the IC50 is at most 50 nM.

Consider `Cc1cn(-c2ccc(N3C[C@@H](C)O[C@@H](C)C3)cc2)c(=O)c2nccc(-c3ccc(C#N)cc3)c12` [Embodiment 85, 4-(7-(4-((2S,6R)-2,6-dimethylmorpholino)phenyl)-5-methyl-8-oxo-7,8-dihydro-1,7-naphthyridin-4-yl)benzonitrile], for which the IC50 fell in the range of 500 to 1000 nM.

On to `COc1c(-c2csc(N3C[C@@H](C)O[C@@H](C)C3)n2)cnc2c(-c3ccc(C#N)cc3)cccc12` [Embodiment 179, 4-(3-(2-(2,6-dimethylmorpholin-4-yl)thiazol-4-yl)-4-methoxyquinolin-8-yl) benzonitrile], for which the IC50 lay within 500 to 1000 nM.

Turning to `CCC(=O)N1CCN(c2ccc(-n3cc(C)c4c(-c5ccc(C#N)cc5)cccc4c3=O)cc2)CC1c1ccccc1` (stereo not shown) [Embodiment 18], the IC50 was 100 to 500 nM.

As for `CC(C)c1ccc(N2CCN(c3cnc4c(-c5ccc(C#N)cc5)cccc4c3C3CC3)CC2)nc1` [Embodiment 261, 4-(4-((4-cyclopropyl-35-isopropylpyridin-2-yl)-3-)-quinolin-8-yl)benzonitrile], the IC50 lay in the range of 100 to 500 nM.

With `C[C@@H]1CN([C@@H]2CCN(c3cnc4c(-c5ccc(C#N)cc5)cccc4c3C3CC3)C[C@@H]2F)C[C@H](C)O1` [Embodiment 269, 4-(4-cyclopropyl-3-((3S,4R)-4-((2S,6R)-2,6-dimethylmorpholino)-3-fluoropiperidin-1-yl)quinolin-8-yl)benzonitrile], the IC50 was at most 50 nM.

`COc1c(-c2ccc(N3C[C@@H](C)N(C(=O)C(C)F)[C@@H](C)C3)nc2)cnc2c(-c3ccc(C#N)cc3)cccc12` (stereo partly drawn) [Embodiment 193, 4-(3-(6-((3S, 5R)-4-(2-fluoropropanoyl)-3,5-dimethylpiperazin-1-yl)pyridin-3-yl)-4-methoxyquinolin-8-yl)benzonitrile]: the IC50 fell in the range of 100 to 500 nM.

For the compound `COc1c(N2CCN(C(=O)NC3CCCCC3)CC2)cnc2c(-c3ccc(C#N)cc3)cccc12` [Embodiment 210], the IC50 is at most 50 nM.

Take `Cc1cn(-c2ccc(N3C[C@@H](C)O[C@@H](C)C3)cc2)c(=O)c2cccc(-c3ccc(Cl)cc3)c12` [Embodiment 51]: the IC50 lay within 100 to 500 nM.

For `COc1c(-c2ccc(N3C[C@@H](C)O[C@@H](C)C3)nc2C)cnc2c(-c3ccc(C#N)cc3)cccc12` [Embodiment 166, 4-(3-(6-((2S,6R)-2,6-dimethylmorpholino)-2-methylpyridin-3-yl)-4-methoxyquinolin-8-yl)benzonitrile], the IC50 is at most 50 nM.

With `COc1c(-c2ccc(N3C[C@H](C)C[C@H](C)C3)cc2)cnc2c(-c3ccc(C#N)cc3)cccc12` [Embodiment 113], the IC50 was at most 50 nM.

With `CCC(=O)N1[C@H](C)CN(c2ccc(-c3cnc4c(-c5ccc(C#N)cc5)cccc4c3OC)cn2)C[C@@H]1C` [Embodiment 204], the half-inhibitory concentration (IC50) is at most 50 nM.

Take `Cc1cn(-c2ccc(N3CC(C)N(CC(C)(C)O)C(C)C3)cc2)c(=O)c2cccc(-c3ccc(C#N)cc3)c12` (stereo not shown) [Embodiment 37]: the IC50 was 100 to 500 nM.

`COc1c(N2CCN(C(=O)NC3CCOCC3)CC2)cnc2c(-c3ccc(C#N)cc3)cccc12` [Embodiment 212]: the half-maximal inhibitory concentration (IC50) was at most 50 nM.

In the case of `CCOc1c(-c2ccc(N3C[C@@H](C)O[C@@H](C)C3)cc2)cnc2c(-c3ccc(C#N)cc3)cccc12` [Embodiment 143, 4-(3-(4-((2S,6R)-2,6-dimethylmorpholino)phenyl)-4-ethoxyquinolin-8-yl)benzonitrile], the IC50 was at most 50 nM.

On to `Cc1cn(-c2ccc(N3C[C@@H](C)O[C@@H](C)C3)cc2)c(=O)c2cccc(-c3ccncc3)c12` [Embodiment 49], for which the IC50 lay in the range of 500 to 1000 nM.

For the compound `Cc1cc(C#N)ccc1-c1cccc2c(C3CC3)c(-c3ccc(N4C[C@@H](C)O[C@@H](C)C4)nc3)cnc12` [Embodiment 125], the IC50 was at most 50 nM.

As for `C[C@@H]1CN(c2ccc(-c3cnc4c(-c5ccc(C#N)cc5)cccc4c3Cl)cc2)C[C@H](C)O1` [Embodiment 118, 4-(4-chloro-3-(4-((2S,6R)-2,6-dimethylmorpholino)phenyl)quinolin-8-yl)benzonitrile], the IC50 lay in the range of 50 to 100 nM.

For the compound `CC(C)(O)c1ccc(N2CCN(c3cnc4c(-c5ccc(C#N)cc5)cccc4c3C3CC3)CC2)nc1` [Embodiment 224], the IC50 was at most 50 nM.

For `COc1c(-c2ccc(N3C[C@@H](C)O[C@@H](C)C3)cc2)cnc2c1CCCC2(O)c1ccc(C#N)cc1` (stereo partly drawn) [Embodiment 156, 4-(3-(4-((2S,6R)-2,6-dimethylmorpholino)phenyl)-8-hydroxy-4-methoxy-5,6,7,8-tetra hydroquinolin-8-yl)benzonitrile], the IC50 fell in the range of 500 to 1000 nM.

As to `CCCOC(=O)N1[C@H](C)CN(c2ccc(-c3cnc4c(-c5ccc(C#N)cc5)cccc4c3OC)cc2)C[C@@H]1C` [Embodiment 184], the IC50 fell in the range of 50 to 100 nM.

On to `CC(C)(O)c1ccc(N2CCN(c3cnc4c(-c5ccc(C#N)cc5)cccc4c3C3CC3)C(=O)C2)nc1` [Embodiment 254, 4-(4-cyclopropyl-3-(4-(5-(2-hydroxypropan-2-yl)pyridin-2-yl)-2-oxopiperazin-1-yl)quinolin-8-yl)benzonitrile], for which the IC50 is at most 50 nM.

Consider `COc1c(-c2ccc(N3C[C@@H](C)N(C(=O)c4ncc[nH]4)[C@@H](C)C3)cc2)cnc2c(-c3ccc(C#N)cc3)cccc12` [Embodiment 187], for which the IC50 was at most 50 nM.

Consider `COc1c(-c2ccc(N3C[C@@H](C)O[C@@H](C)C3)cc2C)cnc2c(-c3ccc(C#N)cc3)cccc12` [Embodiment 169], for which the IC50 is at most 50 nM.

Consider `Cc1cn(-c2ccc(N3C[C@@H](C)O[C@@H](C)C3)nc2)c(=O)c2cccc(-c3ccc(C(F)(F)F)cc3)c12` [Embodiment 67], for which the IC50 lay in the range of 500 to 1000 nM.

With `C[C@@H]1CN(c2ccc(-n3ccc4c(-c5ccc(C#N)cc5)cccc4c3=O)cc2Br)C[C@H](C)O1` [Embodiment 79, 4-(2-(3-bromo-4-((2S,6R)-2,6-dimethylmorpholino)phenyl)-1-oxo-1,2-dihydroisoquinolin-5-yl)benzonitrile], the IC50 is 500 to 1000 nM.

As for `COC(=O)N1[C@H](C)CN(c2ccc(-c3cnc4c(-c5ccc(C#N)cc5)cccc4c3OC)cc2)C[C@@H]1C` [Embodiment 182], the IC50 is at most 50 nM.

In the case of `COc1c(-c2ccc(N3C[C@@H](C)O[C@@H](C)C3)cc2F)cnc2c(-c3ccc(C#N)cc3)cccc12` [Embodiment 168, 4-(3-(4-((2S,6R)-2,6-dimethylmorpholino)-2-fluorophenyl)-4-methoxyquinolin-8-yl) benzonitrile], the IC50 is at most 50 nM.

Regarding `COc1c(N2CCNCC2)cnc2c(-c3ccc(C#N)cc3)cccc12` [Embodiment 208], the IC50 is 100 to 500 nM.
